Measured values taken from patent publication US9212182B2, “Bicyclic sulfonamide compounds as sodium channel inhibitors” (AMGEN INC., priority 2013, dated 2015).

target: Nav 1.7 (Homo sapiens (Human), UniProt Q15858); experiment: in-vitro Nav 1.7 PX (IC50); assay type: cell-based; conditions: not given
Sequence (Q15858 whole entry): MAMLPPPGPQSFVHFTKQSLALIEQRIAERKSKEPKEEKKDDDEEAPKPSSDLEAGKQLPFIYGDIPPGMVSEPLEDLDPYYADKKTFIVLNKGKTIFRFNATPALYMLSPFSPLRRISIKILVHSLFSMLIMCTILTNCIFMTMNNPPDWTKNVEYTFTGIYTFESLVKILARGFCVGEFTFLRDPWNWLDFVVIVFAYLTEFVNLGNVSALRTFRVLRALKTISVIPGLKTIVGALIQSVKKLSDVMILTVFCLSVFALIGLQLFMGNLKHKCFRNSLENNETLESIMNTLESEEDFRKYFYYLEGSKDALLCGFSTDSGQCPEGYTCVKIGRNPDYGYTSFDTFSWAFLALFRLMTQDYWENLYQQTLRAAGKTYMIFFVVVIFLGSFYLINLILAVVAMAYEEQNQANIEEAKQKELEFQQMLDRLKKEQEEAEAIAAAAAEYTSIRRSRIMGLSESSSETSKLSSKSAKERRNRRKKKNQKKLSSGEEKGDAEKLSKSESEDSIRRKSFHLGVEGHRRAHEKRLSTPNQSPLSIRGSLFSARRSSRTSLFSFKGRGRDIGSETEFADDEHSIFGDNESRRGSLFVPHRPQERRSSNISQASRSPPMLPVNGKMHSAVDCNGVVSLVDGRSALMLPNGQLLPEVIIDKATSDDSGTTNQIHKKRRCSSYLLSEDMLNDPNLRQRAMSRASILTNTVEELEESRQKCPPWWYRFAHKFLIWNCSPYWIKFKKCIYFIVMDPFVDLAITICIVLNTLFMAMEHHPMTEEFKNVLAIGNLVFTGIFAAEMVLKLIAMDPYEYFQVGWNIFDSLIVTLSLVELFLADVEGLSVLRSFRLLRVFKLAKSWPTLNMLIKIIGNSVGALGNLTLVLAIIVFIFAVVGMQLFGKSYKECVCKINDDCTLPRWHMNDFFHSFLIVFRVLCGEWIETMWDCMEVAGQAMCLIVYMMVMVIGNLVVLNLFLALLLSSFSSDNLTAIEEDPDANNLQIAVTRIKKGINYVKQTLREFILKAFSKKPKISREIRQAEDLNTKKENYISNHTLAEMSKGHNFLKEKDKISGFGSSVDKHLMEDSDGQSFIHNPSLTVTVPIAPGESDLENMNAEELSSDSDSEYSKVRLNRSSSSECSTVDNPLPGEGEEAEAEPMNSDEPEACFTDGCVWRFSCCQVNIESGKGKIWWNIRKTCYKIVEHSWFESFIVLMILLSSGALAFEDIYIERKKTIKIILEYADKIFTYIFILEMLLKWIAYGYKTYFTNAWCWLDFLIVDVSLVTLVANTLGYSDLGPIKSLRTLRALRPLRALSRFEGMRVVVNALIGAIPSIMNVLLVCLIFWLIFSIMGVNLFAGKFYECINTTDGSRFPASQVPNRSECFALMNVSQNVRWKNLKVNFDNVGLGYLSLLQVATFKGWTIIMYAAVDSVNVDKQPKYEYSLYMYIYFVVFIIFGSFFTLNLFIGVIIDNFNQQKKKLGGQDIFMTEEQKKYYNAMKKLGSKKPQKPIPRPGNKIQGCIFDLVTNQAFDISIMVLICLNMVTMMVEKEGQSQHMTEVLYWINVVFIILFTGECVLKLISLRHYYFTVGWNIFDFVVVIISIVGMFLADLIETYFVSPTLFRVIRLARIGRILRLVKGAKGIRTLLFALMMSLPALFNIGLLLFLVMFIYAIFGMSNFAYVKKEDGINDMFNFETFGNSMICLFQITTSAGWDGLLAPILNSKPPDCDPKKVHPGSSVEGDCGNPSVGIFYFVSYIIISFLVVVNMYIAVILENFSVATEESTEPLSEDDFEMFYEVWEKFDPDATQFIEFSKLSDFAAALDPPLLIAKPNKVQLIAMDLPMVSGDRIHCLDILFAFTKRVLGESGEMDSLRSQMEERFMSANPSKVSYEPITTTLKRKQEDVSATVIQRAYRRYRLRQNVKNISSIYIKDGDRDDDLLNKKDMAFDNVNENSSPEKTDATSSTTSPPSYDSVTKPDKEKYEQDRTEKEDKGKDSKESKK

| IC50 | SMILES |
| --- | --- |
| 246 nM | CCCOc1cc(NS(=O)(=O)c2ccc3c(ccc(=O)n3-c3cc(F)c(Br)cc3OC)c2)ncn1 (atropisomer, axis not shown; (P)) [Example 1186, (P)-1-(4-bromo-5-fluoro-2-methoxyphenyl)-2-oxo-N-(6-propoxy-4-pyrimidinyl)-1,2-dihydro-6-quinolinesulfonamide] |
| 690 nM | COc1ccc(-c2cncc(F)c2)cc1-n1c(=O)ccc2cc(S(=O)(=O)Nc3ccon3)ccc21 [Example 485, 1-(5-(5-fluoro-3-pyridinyl)-2-methoxyphenyl)-N-3-isoxazolyl-2-oxo-1,2-dihydro-6-quinolinesulfonamide] |
| 5570 nM | O=c1ccc2cc(S(=O)(=O)Nc3ccon3)ccc2n1-c1ccc(-c2cccc(F)c2)cc1CC(O)CO (racemic) [Example 327, 1-(3-((2R)-2,3-dihydroxypropyl)-3′-fluoro-4-biphenylyl)-N-3-isoxazolyl-2-oxo-1,2-dihydro-6-quinolinesulfonamide, 1-(3-((2S)-2,3-dihydroxypropyl)-3′-fluoro-4-biphenylyl)-N-3-isoxazolyl-2-oxo-1,2-dihydro-6-quinolinesulfonamide] |
| 471 nM | CO[C@H]1CCCC[C@@H]1n1c(=O)ccc2cc(S(=O)(=O)Nc3ncns3)ccc21 (racemic) [Example 1145, (±)-1-((1S,2S)-2-methoxycyclohexyl)-2-oxo-N-1,2,4-thiadiazol-5-yl-1,2-dihydro-6-quinolinesulfonamide] |

| SMILES | IC50 |
| --- | --- |
| COc1cc(-c2cccc(F)c2)c(Cl)cc1-n1c(=O)ccc2cc(S(=O)(=O)Nc3ccon3)c(F)cc21 (atropisomer, axis not shown; (P)) [Example 358, (P)-1-(2-chloro-3′-fluoro-5-methoxy-[1,1′-biphenyl]-4-yl)-7-fluoro-N-(isoxazol-3-yl)-2-oxo-1,2-dihydroquinoline-6-sulfonamide] | 4660 nM |

same assay, conditions: in-vitro Nav 1.7 PX data

| IC50 | SMILES |
| --- | --- |
| 4150 nM | COc1nc(-c2cc(F)cc(F)c2)c(Cl)cc1-n1c(=O)ccc2cc(S(=O)(=O)Nc3ncccn3)ccc21 [Example 1081, 1-(5-chloro-6-(3,5-difluorophenyl)-2-methoxy-3-pyridinyl)-2-oxo-N-2-pyrimidinyl-1,2-dihydro-6-quinolinesulfonamide] |
| 32 nM | COc1cc(-c2cccc(C)c2)c(F)cc1-n1c(=O)ccc2cc(S(=O)(=O)Nc3ncccn3)ccc21 [Example 1107, 1-(2-fluoro-5-methoxy-3′-methyl-4-biphenylyl)-2-oxo-N-2-pyrimidinyl-1,2-dihydro-6-quinolinesulfonamide] |
| 48 nM | COc1cccc(-c2nc(OC)c(-n3c(=O)ccc4cc(S(=O)(=O)Nc5ccon5)ccc43)cc2Cl)c1 [Example 1092, 1-(5-chloro-2-methoxy-6-(3-methoxyphenyl)-3-pyridinyl)-N-3-isoxazolyl-2-oxo-1,2-dihydro-6-quinolinesulfonamide] |
| 73 nM | COc1cc(-c2ccc(C)c(C)c2)ccc1-n1c(=O)ccc2cc(S(=O)(=O)Nc3ccon3)ccc21 [Example 812, N-3-isoxazolyl-1-(3-methoxy-3′,4′-dimethyl-4-biphenylyl)-2-oxo-1,2-dihydro-6-quinolinesulfonamide] |
| 44 nM | COc1cc(-c2ccc(Cl)c(C#N)c2)c(F)cc1-n1c(=O)ccc2cc(S(=O)(=O)Nc3ncccn3)ccc21 [Example 871, 1-(4′-chloro-3′-cyano-2-fluoro-5-methoxy-4-biphenylyl)-2-oxo-N-2-pyrimidinyl-1,2-dihydro-6-quinolinesulfonamide] |
| 694 nM | COc1cc(CC2CCOCC2)c(F)cc1-n1c(=O)ccc2cc(S(=O)(=O)Nc3ccon3)ccc21 [Example 1121, 1-(5-fluoro-2-methoxy-4-(tetrahydro-2H-pyran-4-ylmethyl)phenyl)-N-3-isoxazolyl-2-oxo-1,2-dihydro-6-quinolinesulfonamide] |
| 40 nM | COc1cc(-c2ccc(Cl)cc2)ccc1-n1c(=O)ccc2cc(S(=O)(=O)Nc3ncc(F)cn3)ccc21 [Example 764, 1-(4′-chloro-3-methoxy-4-biphenylyl)-N-(5-fluoro-2-pyrimidinyl)-2-oxo-1,2-dihydro-6-quinolinesulfonamide] |
| 24 nM | CCOc1cccc(-c2ccc(-n3c(=O)ccc4cc(S(=O)(=O)Nc5ccon5)ccc43)c(OC)c2)c1 [631/779, 1-(3′-ethoxy-3-methoxy-4-biphenylyl)-N-3-isoxazolyl-2-oxo-1,2-dihydro-6-quinolinesulfonamide] |
| 27 nM | CCOc1cccc(-c2cc(OC)c(-n3c(=O)ccc4cc(S(=O)(=O)Nc5ncccn5)ccc43)cc2C)c1 [Example 963, 1-(3′-ethoxy-5-methoxy-2-methyl-4-biphenylyl)-2-oxo-N-2-pyrimidinyl-1,2-dihydro-6-quinolinesulfonamide] |
| 210 nM | COc1cc(-c2cc(OC)c(-n3c(=O)ccc4cc(S(=O)(=O)Nc5ccnc(C)n5)ccc43)cc2F)ccc1F [Example 1008, 1-(2,4′-difluoro-3′,5-dimethoxy-4-biphenylyl)-N-(2-methyl-4-pyrimidinyl)-2-oxo-1,2-dihydro-6-quinolinesulfonamide] |
| 81 nM | COc1cc(CC2CCCCC2)c(F)cc1-n1c(=O)ccc2cc(S(=O)(=O)Nc3ccncn3)ccc21 [Example 1115, 1-(4-(cyclohexylmethyl)-5-fluoro-2-methoxyphenyl)-2-oxo-N-4-pyrimidinyl-1,2-dihydro-6-quinolinesulfonamide] |
| 151 nM | COc1cc(-c2cc(OC)c(-n3c(=O)ccc4cc(S(=O)(=O)Nc5cc(C)ncn5)ccc43)cc2F)ccc1F [Example 1009, 1-(2,4′-difluoro-3′,5-dimethoxy-4-biphenylyl)-N-(6-methyl-4-pyrimidinyl)-2-oxo-1,2-dihydro-6-quinolinesulfonamide] |
| 12 nM | COc1cc(-c2cc(C)cc(F)c2)ccc1-n1c(=O)ccc2cc(S(=O)(=O)Nc3ccon3)ccc21 [Example 1015, 1-(3′-fluoro-3-methoxy-5′-methyl-4-biphenylyl)-N-3-isoxazolyl-2-oxo-1,2-dihydro-6-quinolinesulfonamide] |
| 15 nM | COc1cc(Cl)cc(-c2ccc(-n3c(=O)ccc4cc(S(=O)(=O)Nc5ncc(F)cn5)ccc43)c(OC)c2)c1 [Example 927, 1-(3′-chloro-3,5′-dimethoxy-4-biphenylyl)-N-(5-fluoro-2-pyrimidinyl)-2-oxo-1,2-dihydro-6-quinolinesulfonamide] |
| 48 nM | COc1cc(-c2cccc(OC(F)F)c2)ccc1-n1c(=O)ccc2cc(S(=O)(=O)Nc3ccon3)ccc21 [Example 786, 1-(3′-(difluoromethoxy)-3-methoxy-4-biphenylyl)-N-3-isoxazolyl-2-oxo-1,2-dihydro-6-quinolinesulfonamide] |
| 20 nM | COc1cc(-c2ccc(Cl)cc2F)c(F)cc1-n1c(=O)ccc2cc(S(=O)(=O)Nc3ccon3)ccc21 [Example 733, 1-(4′-chloro-2,2′-difluoro-5-methoxy-4-biphenylyl)-N-3-isoxazolyl-2-oxo-1,2-dihydro-6-quinolinesulfonamide] |
| 107 nM | COc1cc(-c2ccc(F)c(F)c2)ccc1-n1c(=O)ccc2cc(S(=O)(=O)Nc3cc(C)ncn3)ccc21 [Example 899, 1-(3′,4′-difluoro-3-methoxy-4-biphenylyl)-N-(6-methyl-4-pyrimidinyl)-2-oxo-1,2-dihydro-6-quinolinesulfonamide] |

same assay, conditions: in-vitro Nav 1.7 PX data (PatchXpress)

| IC50 | SMILES |
| --- | --- |
| 2950 nM | O=c1ccc2cc(S(=O)(=O)Nc3cnccn3)ccc2n1-c1ccc(-c2cc(F)cc(F)c2)cc1C1CC1 [Example 1044, 1-(3-cyclopropyl-3′,5′-difluoro-4-biphenylyl)-2-oxo-N-2-pyrazinyl-1,2-dihydro-6-quinolinesulfonamide] |
